# Data: US20130315843A1, “COMPOSITION FOR REDUCTION OF TRPA1 AND TRPV1 SENSATIONS” (priority 2012, published 2013)
# “Also recorded” adds a separate entry of the source. Read-outs that look alike come from different tables or passages of the source.
# Assays:
# [1] = target: T1, human TRPA1 (Homo sapiens, UniProt O75762); experiment: FLIPR Ca2+ assay, reduction of L-Menthol activation of TRPA1; conditions: 100 μM antagonist vs 1 mM L-Menthol
# Procedure: In order to determine whether TRPA1 is activated, the intracellular calcium ion (Ca^2+) level from transfected cells with the TRPA1 receptor gene was measured. HEK-2 cells stably transfected with human TRPA1 were grown in 15 ml growth medium [high glucose DMEM (Dulbecco's Modification of Eagle's Medium) supplemented with 10% FBS (fetal bovine serum), 100 μg/ml Penicillin/streptomycin, 100 μg/ml G418] in a 75 Cm^2 flask for 3 days at 37° C. in a mammalian cell culture incubator set at 5% CO2. Cells were detached with addition of 10 ml of PBS (phosphate buffered saline) by hand shaking gently and transferred to a 50 ml tube and centrifuged at 850 rpm for 3 minutes to remove PBS. After centrifugation, a pellet of cells was formed in the bottom of the tube separating them from the supernatant solution. […] Fluo-4 is a fluorescent dye used for quantifying cellular Ca^2+ concentrations in the 100 nM to 1 μM range.
# The pelleted cells were re-suspended in 10 ml assay buffer and 90 μl aliquots (˜50,000 cells) per well delivered to a 96-well assay plate containing 10 μl of test compounds (1 mM in assay buffer, final concentration 100 μM) or buffer control and incubated at room temperature for 30 minutes. After 30 minutes, the plate was placed into a fluorometric imaging plate reader (FLIPR384 from Molecular Devices) and basal fluorescence recorded (excitation wave length 488 nm and emission wave length 510 nm). Then 20 μl of the molecule being tested as a TRPA1 antagonist was added and fluorescence recorded. For determining the direct effect of test compounds on TRPA1, fluorescence was measured immediately after addition of each compound.
# To determine if a compound was an antagonist or a desensitizer the direct effect of a test compound was determined. For determining the direct effect of test compounds on TRPA1 receptor activation, 100 μl aliquots (˜50,000 cells) of cells prepared as described above were delivered to a 96-well assay plate and basal fluorescence recorded as noted above. Then 20 μl of the compound being tested as a TRPA1 activator was added and fluorescence recorded. If any increase in fluorescence over background was noted, then the compound was considered an agonist.
# [2] = target: human TRPV1 (Homo sapiens, UniProt Q8NER1); experiment: FLIPR Ca2+ assay, reduction of L-Menthol activation of TRPV1; conditions: for Average Ca2+ Counts / % Reduction of L-Menthol TRPV1 Activation: antagonist 100 μM against 1 mM L-Menthol; for inhibition at 100 µM: read-out: % Reduction of L-Menthol TRPV1 Activation
# Procedure: To determine whether TRPV1 was activated, the intracellular calcium ion (Ca^+2) levels from cells transfected with the TRPV1 receptor gene was measured. HEK-239 cells stably transfected with human TRPV1 were grown in 15 ml growth medium [high glucose DMEM (Dulbecco's Modification of Eagle's Medium) supplemented with 10% FBS (fetal bovine serum), 100 g/ml Penicillin/streptomycin, 100 g/ml G418] in a 75 Cm2 flask for 3 days at 33° C. in a mammalian cell culture incubator set at 5% CO2. Cells were detached with addition of 10 ml of PBS (phosphate buffered saline) by hand shaking gently. Cells were transferred to a 50 ml tube and centrifuged at 850 rpm for 3 minutes to remove PBS. After centrifugation, a pellet of cells formed in the bottom of the tube separating them from the supernatant solution. The supernatant was discarded and the cell pellet suspended in 1 ml of fresh growth medium to which 5 μl (12.5 g) of Fluo-4 AM (Molecular Probes, Inc., Eugene, Oreg.) calcium indicator was added and incubated for 30 minutes with gentle shaking.
# The pelleted cells were re-suspended in 10 ml assay buffer and 90 μl aliquots (˜50,000 cells) per well delivered to a 96-well assay plate containing 10 μl of test compounds (1 mM in assay buffer, final concentration 100 μM) or buffer control and incubated at room temperature for 30 minutes. After 30 minutes, the plate was placed into a fluorometric imaging plate reader (FLIPR384 from Molecular Devices) and basal fluorescence recorded (excitation wave length 488 nm and emission wave length 510 nm). Then 20 μl of the compound being tested as a TRPV1 receptor activator was added and fluorescence recorded. […] It may be no difference (no effect), or negative (means antagonist or desensitizer) or positive (enhancer, also known as positive allosteric modulator). […] To determine if a compound was an antagonist or a desensitizer, the direct effect of a test compound was determined. For determining the direct effect of test compounds on TRPV1, 100 μl aliquots (˜50,000 cells) of cells prepared as described above were delivered to a 96-well assay plate and basal fluorescence recorded as noted above. Then 20 μl of the compound being tested as a TRPV1 receptor activator was added and fluorescence recorded. If any increase in fluorescence over background was noted, then the compound was considered an agonist. The agonist activity was expressed relative to that observed with a benchmark agonist such as 350 nM Capsaicin for TRPV1.
# 100 μM of antagonist was tested against 1 mM of L-Menthol to determine the level of reduced TRPV1 receptor activation by L-Menthol. Each antagonist compound was run with 1 mM of L-Menthol as a control and the antagonist activity of each compound was determined by comparing the Ca^2+ levels of the control with the antagonist compound being tested.
# [3] = target: T1, human TRPA1; experiment: FLIPR Ca2+ assay, reduction of hydrogen peroxide activation of TRPA1; assay type: cell-based; set-up: expressed in transfected cells; conditions: for inhibition at 100 µM / inhibition at 400 µM: read-out: % Reduction of Hydrogen Peroxide TRPA1 Activation; for inhibition at 400 µM: antagonist 400 μM against 200 μM hydrogen peroxide
# Procedure: After centrifugation, a pellet of cells was formed in the bottom of the tube separating them from the supernatant solution.
# The pelleted cells were re-suspended in 10 ml assay buffer and 90 μl aliquots (˜50,000 cells) per well delivered to a 96-well assay plate containing 10 μl of test compounds ([…]) or buffer control and incubated at room temperature for 30 minutes.
# [4] = target: T1, human TRPA1; experiment: FLIPR Ca2+ assay, block of AITC activation of TRPA1; assay type: cell-based; set-up: expressed in transfected cells
# Procedure: Intracellular Ca^++ levels were measured using cell based assays as described for EXAMPLES 1, 2, and 3.
# [5] = 100 μM antagonist vs 500 μM hydrogen peroxide
# [6] = compound 100 μM against 200 μM hydrogen peroxide, Sets 1-4
# [7] = 400 μM antagonist vs 500 μM hydrogen peroxide
# Chain of human TRPV1 (Q8NER1 whole entry): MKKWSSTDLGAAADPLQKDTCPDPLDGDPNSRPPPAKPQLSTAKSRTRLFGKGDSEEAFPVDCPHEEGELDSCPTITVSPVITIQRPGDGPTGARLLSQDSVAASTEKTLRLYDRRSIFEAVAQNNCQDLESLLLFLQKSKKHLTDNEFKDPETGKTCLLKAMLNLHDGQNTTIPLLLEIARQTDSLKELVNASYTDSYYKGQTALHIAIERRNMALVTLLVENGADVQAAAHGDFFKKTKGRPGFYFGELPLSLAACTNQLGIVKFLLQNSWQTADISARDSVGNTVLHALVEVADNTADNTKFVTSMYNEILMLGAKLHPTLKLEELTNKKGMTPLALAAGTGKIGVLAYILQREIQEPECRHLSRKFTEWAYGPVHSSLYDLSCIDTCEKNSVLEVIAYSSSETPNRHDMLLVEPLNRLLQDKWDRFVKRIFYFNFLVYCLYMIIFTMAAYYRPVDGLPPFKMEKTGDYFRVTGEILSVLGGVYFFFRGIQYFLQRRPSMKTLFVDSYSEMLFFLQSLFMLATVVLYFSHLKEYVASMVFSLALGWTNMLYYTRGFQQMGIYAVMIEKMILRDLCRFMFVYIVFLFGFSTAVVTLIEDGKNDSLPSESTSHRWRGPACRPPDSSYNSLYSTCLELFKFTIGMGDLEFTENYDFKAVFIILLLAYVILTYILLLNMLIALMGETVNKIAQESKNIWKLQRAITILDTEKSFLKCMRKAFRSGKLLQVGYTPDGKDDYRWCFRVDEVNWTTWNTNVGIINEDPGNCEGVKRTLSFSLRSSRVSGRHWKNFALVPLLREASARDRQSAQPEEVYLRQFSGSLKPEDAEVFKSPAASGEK
# T1 sequence (O75762 whole entry): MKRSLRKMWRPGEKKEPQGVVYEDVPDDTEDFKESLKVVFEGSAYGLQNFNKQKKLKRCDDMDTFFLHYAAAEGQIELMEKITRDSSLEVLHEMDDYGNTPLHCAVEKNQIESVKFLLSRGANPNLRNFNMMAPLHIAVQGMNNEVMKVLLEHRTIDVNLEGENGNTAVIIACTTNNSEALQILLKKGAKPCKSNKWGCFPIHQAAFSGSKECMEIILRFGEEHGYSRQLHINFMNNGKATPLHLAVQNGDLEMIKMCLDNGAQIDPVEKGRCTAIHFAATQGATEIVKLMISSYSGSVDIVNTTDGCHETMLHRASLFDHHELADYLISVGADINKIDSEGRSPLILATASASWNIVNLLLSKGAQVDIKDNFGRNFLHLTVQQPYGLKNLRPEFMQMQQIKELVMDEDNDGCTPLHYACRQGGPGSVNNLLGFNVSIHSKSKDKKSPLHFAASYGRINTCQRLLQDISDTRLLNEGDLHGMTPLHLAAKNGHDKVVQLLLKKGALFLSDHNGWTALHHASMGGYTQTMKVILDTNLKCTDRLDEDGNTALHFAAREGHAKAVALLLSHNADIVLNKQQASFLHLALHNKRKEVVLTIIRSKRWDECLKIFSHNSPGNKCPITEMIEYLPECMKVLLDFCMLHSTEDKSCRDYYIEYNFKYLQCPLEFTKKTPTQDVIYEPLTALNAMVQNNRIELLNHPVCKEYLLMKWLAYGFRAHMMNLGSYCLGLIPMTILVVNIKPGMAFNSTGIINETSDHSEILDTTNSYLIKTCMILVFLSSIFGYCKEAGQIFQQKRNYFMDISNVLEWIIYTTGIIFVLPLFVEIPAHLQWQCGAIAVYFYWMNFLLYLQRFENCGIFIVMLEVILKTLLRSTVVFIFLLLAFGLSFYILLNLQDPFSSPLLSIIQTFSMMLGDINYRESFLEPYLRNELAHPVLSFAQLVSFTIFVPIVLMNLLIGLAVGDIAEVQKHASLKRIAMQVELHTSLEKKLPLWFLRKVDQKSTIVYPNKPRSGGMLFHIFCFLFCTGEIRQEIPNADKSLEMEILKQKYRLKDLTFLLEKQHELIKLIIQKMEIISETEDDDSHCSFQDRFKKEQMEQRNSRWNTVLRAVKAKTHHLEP
Compound,inhibition at 100 µM [2] [%],"Block of hydrogen peroxide activation of TRPA1 [3, 5]","Average Ca++ Counts [3, 6] [Counts]","inhibition at 100 µM [3, 6] [%]",Block of AITC activation of TRPA1 ([4]; 100 μM antagonist),Block of L-Menthol activation of TRPA1 [1],Average Ca2+ Counts [2] [Counts],also measured
CCCCCCCCCCCCCCCCCC(=O)OCC(O)CO (racemic) [1-stearoyl-rac-glycerol],26.4,"Block menthol, H2O2, and AITC on TRPA1",3131.0,55.5,"Block menthol, H2O2, and AITC on TRPA1","Block menthol, H2O2, and AITC on TRPA1",4708.0,–
"CC(S)C(C)S (stereo not shown) [2,3-butanedithiol]",64.8,"Block menthol, H2O2, and AITC on TRPA1",1280.5,87.9,"Block menthol, H2O2, and AITC on TRPA1","Block menthol, H2O2, and AITC on TRPA1",586.0,–
"CC1(O)CSC(C)(O)CS1 (stereo not shown) [2,5-dimethyl-1,4-dithiane-2,5-diol]",58.9,"Block menthol, H2O2, and AITC on TRPA1",2420.0,77.2,"Block menthol, H2O2, and AITC on TRPA1","Block menthol, H2O2, and AITC on TRPA1",713.7,–
"Cc1cc(S)c(C)o1 [2,5-dimethylfuran-3-thiol]",25.2,–,–,–,BLOCK BOTH MENTHOL AND AITC ON TRPA1,BLOCK BOTH MENTHOL AND AITC ON TRPA1,1443.0,–
SCCc1cnccn1 [2-Pyrazinyl ethanethiol],–,"Block menthol, H2O2, and AITC on TRPA1",–,–,"Block menthol, H2O2, and AITC on TRPA1","Block menthol, H2O2, and AITC on TRPA1",–,–
O=C(CCl)c1ccccc1 [2-chloroacetophenone],31.2,"Block menthol, H2O2, and AITC on TRPA1",1199.5,–,"Block menthol, H2O2, and AITC on TRPA1","Block menthol, H2O2, and AITC on TRPA1",1313.0,inhibition at 100 µM [3]: 88.7%
CCCCCCCCCC(C)=O [2-undecanone],32.6,–,–,–,"Block menthol, H2O2, and AITC on TRPA1","Block menthol, H2O2, and AITC on TRPA1",1282.3,"Average Ca++ Counts [3]: 4581.0 Counts; Block of hydrogen peroxide activation of TRPA1 [3]: Block menthol, H2O2, and AITC on TRPA1; inhibition at 100 µM [3]: 56.8%"
CSCCCN=C=S [3-(methylthio)propyl isothiocyanate],25.9,–,–,–,BLOCK BOTH MENTHOL AND AITC ON TRPA1,BLOCK BOTH MENTHOL AND AITC ON TRPA1,1426.7,–
CCCCOC(=O)c1ccc(O)cc1 [butyl 4-hydroxybenzoate],77.2,–,–,–,"Block menthol, H2O2, and AITC on TRPA1","Block menthol, H2O2, and AITC on TRPA1",319.0,"Average Ca++ Counts [3]: 411.0 Counts; Block of hydrogen peroxide activation of TRPA1 [3]: Block menthol, H2O2, and AITC on TRPA1; inhibition at 100 µM [3]: 96.1%"
[Cu+].[I-] [copper(i) iodide],–,"Block menthol, H2O2, and AITC on TRPA1",–,–,"Block menthol, H2O2, and AITC on TRPA1","Block menthol, H2O2, and AITC on TRPA1",651.5,"% Reduction of L-Menthol TRPV1 Activation [2]: 89.8%; % Reduction of Hydrogen Peroxide TRPA1 Activation [3, 6]: 90.4%"
c1ccc(SSc2ccccc2)cc1 [diphenyl disulfide],64.9,–,–,–,"Block menthol, H2O2, and AITC on TRPA1","Block menthol, H2O2, and AITC on TRPA1",1630.5,"Average Ca++ Counts [3]: 1112.0 Counts; Block of hydrogen peroxide activation of TRPA1 [3]: Block menthol, H2O2, and AITC on TRPA1; inhibition at 100 µM [3]: 81.1%"
COc1ccccc1C=CC=O [o-Methoxycinnamaldehyde],–,–,–,–,–,–,–,"Block of hydrogen peroxide activation of TRPA1 [3, 7]: Block both H2O2 and AITC on TRPA1; inhibition at 400 µM [3]: 51%; Block of AITC activation of TRPA1 ([4]; 400 μM antagonist): Block both H2O2 and AITC on TRPA1"
O=CCc1ccccc1 [phenylacetaldehyde],49.4,"Block menthol, H2O2, and AITC on TRPA1",2578.5,75.7,"Block menthol, H2O2, and AITC on TRPA1","Block menthol, H2O2, and AITC on TRPA1",919.3,–
"CCCC/C=C/C=C/C=O [trans, trans-2,4-Nonadienal]",–,–,–,–,–,–,–,"Block of hydrogen peroxide activation of TRPA1 [3, 7]: Block both H2O2 and AITC on TRPA1; inhibition at 400 µM [3]: 67%; Block of AITC activation of TRPA1 ([4]; 400 μM antagonist): Block both H2O2 and AITC on TRPA1"
zinc gluconate,–,–,–,–,BLOCK BOTH MENTHOL AND AITC ON TRPA1,BLOCK BOTH MENTHOL AND AITC ON TRPA1,3963.5,% Reduction of L-Menthol TRPV1 Activation [2]: 38.1%

# The next lines start with results.
inhibition at 100 µM [2] [%],"Block of hydrogen peroxide activation of TRPA1 [3, 5]","Average Ca++ Counts [3, 6] [Counts]","inhibition at 100 µM [3, 6] [%]",Block of AITC activation of TRPA1 ([4]; 100 μM antagonist),Compound,Block of L-Menthol activation of TRPA1 [1],Average Ca2+ Counts [2] [Counts],also measured
–,"Block menthol, H2O2, and AITC on TRPA1",4808.5,54.6,"Block menthol, H2O2, and AITC on TRPA1",CCc1ccccc1S [2-ethylbenzenethiol],"Block menthol, H2O2, and AITC on TRPA1",–,–
34.3,"Block menthol, H2O2, and AITC on TRPA1",2402.0,72.5,"Block menthol, H2O2, and AITC on TRPA1","CC1SCCS1 [2-methyl-1,3-dithiolane]","Block menthol, H2O2, and AITC on TRPA1",2650.5,–
38.9,–,–,–,BLOCK BOTH MENTHOL AND AITC ON TRPA1,Cc1occc1S [2-methyl-3-furanthiol],BLOCK BOTH MENTHOL AND AITC ON TRPA1; also recorded: BLOCK ONLY MENTHOL/TRPA1,2835.5,–
–,Block both H2O2 and AITC on TRPA1,3314.5,43.6,Block both H2O2 and AITC on TRPA1,CCOC(=O)CC(C)=O [ethyl acetoacetate],–,–,–
–,Block both H2O2 and AITC on TRPA1,3392.5,51.8,Block both H2O2 and AITC on TRPA1,CC(C)OC(=O)C(C)C [isobutyric acid isopropyl ester],–,–,–
–,Block both H2O2 and AITC on TRPA1,2893.5,72.7,Block both H2O2 and AITC on TRPA1,O=C(Oc1ccccc1)c1ccccc1O [phenyl salicylate],–,–,–
43.6,–,–,–,BLOCK BOTH MENTHOL AND AITC ON TRPA1,O=C(O)CCC(=O)O [succinic acid],BLOCK BOTH MENTHOL AND AITC ON TRPA1,1045.0,–
